In patent USRE44599E1, “Quinazolinones as inhibitors of human phosphatidylinositol 3-kinase delta” (ICOS Corporation, priority 2004, dated 2013):
pIC50: −log10 of the molar value.

Tests used:
osteoclasts = test: Osteoclast function (pit depths on dentine slices); format: cell-based, mouse; conditions: PI3K inhibitors 100 nM, 72 hr
Method: To analyze the effect of the present PI3Kδ inhibitor compounds on osteoclasts, mouse bone marrow cells are isolated and differentiated to osteoclasts by treating the cells with Macrophage Colony Stimulating Factor^−1 (mCSF^−1) and Osteoprotegerin Ligand (OPGL) in serum-containing medium (αMEM with 10% heat-inactivated FBS; Sigma) for 3 days. On day four, when the osteoclasts had developed, the medium is removed and cells are harvested. The osteoclasts are plated on dentine slices at 10^5 cells/well in growth medium, i.e., αMEM containing 1% serum and 2% BSA with […] OPGL and 10 ng/mL mCSF^−1. After 3 hr, the medium is changed to 1% serum and 1% BSA, with or without osteopontin (25 μg/mL) and the PI3K inhibitors (100 nM). The medium is changed every 24 hours with fresh osteopontin and the inhibitors. At 72 hr, the medium is removed, and the dentine surfaces are washed with water to remove cell debris and stained with acid hematoxylin. Excess stain is washed and the pit depths are quantitated using confocal microscopy.

neutrophil [1] = conditions: cited from earlier work
neutrophil [2] = conditions: cited from earlier work; remark: listed apart in the source
Class I PI 3-kinases = conditions: read-out: IC50 against each of the various Class I PI 3-kinases; cited from earlier work

Which results are given for `O=c1cc(N2CCOCC2)oc2c(-c3ccccc3)cccc12` [LY294002]?
osteoclast activity (osteoclasts): inhibited osteoclast activity; superoxide release (neutrophil [1]): block neutrophil migration and superoxide release; neutrophil migration (neutrophil [2]): block neutrophil migration

For `COC[C@H]1OC(=O)c2coc3c2[C@@]1(C)C1=C(C3=O)[C@@H]2CCC(=O)[C@@]2(C)C[C@H]1OC(C)=O` [wortmannin], which osteoclast activity (osteoclasts) is on record?
The osteoclast activity was “inhibited osteoclast activity”.

What about the superoxide release (neutrophil [1]) of the same compound?
The superoxide release was “block neutrophil migration and superoxide release”.

What about the neutrophil migration (neutrophil [2]) of the same compound?
Its neutrophil migration is “block neutrophil migration”.

What about the pIC50 (Class I PI 3-kinases) of the same compound?
The pIC50 was 8.00 to 9.00.
